Here are results for 9 compounds from US20070099915A1, “INHIBITORS OF THE HIV INTEGRASE ENZYME” (PFIZER INC., priority 2005, published 2007).

Assay [1] deals with T1, Full-length wild type HIV-1 integrase (SF1) (Human immunodeficiency virus type 1 group M subtype B, UniProt P04585).
T1 construct: made in house; host or cells: E. coli BL21 (DE3)
Kind of assay: Integrase strand-transfer scintillation proximity assay. Type of assay: biochemical. As to conditions: strand-transfer SPA, 246 nM integrase, 50 nM host DNA, 37° C., 50 min; read-out: IC50.

In assay [2] the test system is HIV-1 RF virus in CEM-SS cells. Kind of assay: HIV-1 cell protection assay (XTT dye reduction). Format: cell-based. The following applies: Human immunodeficiency virus 1, 144 h; RF strain of HIV-1, CEM-SS cells, XTT read-out after six days; read-out: EC50. The method in brief:
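Infected CEM-SS cultures incubated six days, then XTT with phenazine methosulfate added for 4 h; viability read as formazan absorbance at 450 nm. Formazan expressed as percent of uninfected, compound-free cells; CC50 from uninfected treated cells, therapeutic index as CC50/EC50.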
(Tetrazolium assays rely on reduction of a dye to a coloured formazan, in cell work by metabolically active cells.)

Assay [3] deals with HIV-1. As to conditions: HIV-1 infected patients; S. Little et al., CROI 2005, Abstract 161; cited from earlier work.

Usually IC50 stands for the concentration needed to halve the response being measured. Usually EC50 stands for the midpoint of the concentration-response curve. Take `COCCN(C)CCc1cn(Cc2ccc(F)cc2)c2cnc3c(c12)CCN(O)C3=O` [Example 118, 3-(4-fluorobenzyl)-7-hydroxy-1-{2-[(2-methoxyethyl)(methyl)amino]ethyl}-3,7,8,9-tetrahydro-6H-pyrrolo[2,3-c]-1,7-naphthyridin-6-one]: in assay [1], the IC50 turned out to be 20 nM. Moreover, the EC50 in assay [2] turned out to be 13 nM.

`CN1CCN(CCc2cn(Cc3ccc(F)cc3)c3cnc4c(c23)CCN(O)C4=O)CC1=O` [Example 119, 3-(4-fluorobenzyl)-7-hydroxy-1-[2-(4-methyl-3-oxopiperazin-1-yl)ethyl]-3,7,8,9-tetrahydro-6H-pyrrolo[2,3-c]-1,7-naphthyridin-6-one]: in assay [1], the half-inhibitory concentration (IC50) turned out to be 12 nM. Besides, the EC50 in assay [2] worked out at 70 nM. On the same counts, the results for `O=C1c2ncc3c(c(CCCO)cn3Cc3ccc(F)cc3)c2CCN1O` [Example 120, 3-(4-fluorobenzyl)-7-hydroxy-1-(3-hydroxypropyl)-3,7,8,9-tetrahydro-6H-pyrrolo[2,3-c]-1,7-naphthyridin-6-one] are 13 nM and 9 nM.

As to `COC(C)(C)CCc1cn(Cc2ccc(F)cc2)c2cnc3c(c12)CCN(O)C3=O` [Example 121, 3-(4-fluorobenzyl)-7-hydroxy-1-(3-methoxy-3-methylbutyl)-3,7,8,9-tetrahydro-6H-pyrrolo[2,3-c]-1,7-naphthyridin-6-one], in assay [1], the 50% inhibitory concentration (IC50) worked out at 14 nM. In assay [2], the EC50 was 0.4 nM.

Take `CN(CCCc1cn(Cc2ccc(F)cc2)c2cnc3c(c12)CCN(O)C3=O)Cc1ccccn1` [Example 122, 3-(4-fluorobenzyl)-7-hydroxy-1-{3-[methyl(pyridin-2-ylmethyl)amino]propyl}-3,7,8,9-tetrahydro-6H-pyrrolo[2,3-c]-1,7-naphthyridin-6-one]: the IC50 in assay [1] turned out to be 26 nM. Besides, the EC50 in assay [2] was found to be 5 nM. Take `CC(C)CN(C)Cc1cn(Cc2ccc(F)cc2)c2cnc3c(c12)CCN(O)C3=O` [Example 123, 3-(4-fluorobenzyl)-7-hydroxy-1-{[isobutyl(methyl)amino]methyl}-3,7,8,9-tetrahydro-6H-pyrrolo[2,3-c]-1,7-naphthyridin-6-one]: in assay [1], the IC50 is 44 nM. Further, the EC50 in assay [2] amounted to 1.6 nM.

In the case of `CN1CCN(CCCc2cn(Cc3ccc(F)cc3)c3cnc4c(c23)CCN(O)C4=O)CC1=O` [Example 127, 3-(4-fluorobenzyl)-7-hydroxy-1-[3-(4-methyl-3-oxopiperazin-1-yl)propyl]-3,7,8,9-tetrahydro-6H-pyrrolo[2,3-c]-1,7-naphthyridin-6-one], in assay [1], the IC50 was 14 nM. In addition, in assay [2], the EC50 came out at 40 nM. For `O=C1c2ncc3c(c(CCCOCCN4CCOCC4)cn3Cc3ccc(F)cc3)c2CCN1O` [Example 128, 3-(4-fluorobenzyl)-7-hydroxy-1-[3-(2-morpholin-4-ylethoxy)propyl]-3,7,8,9-tetrahydro-6H-pyrrolo[2,3-c]-1,7-naphthyridin-6-one], the IC50 in assay [1] turned out to be 21 nM. In addition, in assay [2], the EC50 came to 5 nM.

As to `O=C(NCc1ccc(F)cc1)c1nc(N2CCCCS2(=O)=O)c2cccnc2c1O` [Example L-000870810], the “clinical efficacy in the treatment of HIV-infected patients” value in assay [3] is on record as “showed clinical efficacy”.
